Target: T1, recombinant human EP-2 receptor (Homo sapiens, UniProt P43116)
T1 construct: cell line stably transfected with full length cDNA encoding human Prostaglandin E2 was established; expressed in transfected cells; host or cells: CHO (Chinese hamster ovary) cells, stably transfected
Assay: in vitro antagonist potency against recombinant human EP-2 receptor in CHO cells (cAMP, Protocol 1)
Format: cell-based
Conditions: functional Ki by Cheng-Prusoff from IC50; CHO cells stimulated with PGE2 (5 nM); cAMP readout; read-out: EP2 Ki
Text: 1.0 Measurement of in vitro Antagonist Potency (IC50) of Compounds Against Recombinant Human Prostaglandin E2 Receptor in CHO Cells
The prostaglandin E2 (EP-2) receptor is Gs coupled and agonism of the receptor by PGE2 results in activation of intracellular adenylate cyclase enzymes that synthesise the second messenger signalling molecule, adenosine 3′,5′-cyclic monophosphate (cAMP). […] Decreases in cAMP levels following treatment of stimulated recombinant EP-2 cells with potential antagonist compounds were measured and potency (IC50) calculated as follows. A Chinese hamster ovary (CHO) cell line stably transfected with full length cDNA encoding human Prostaglandin E2 was established using standard molecular biology methods. Test compounds were dissolved in dimethyl sulphoxide (DMSO) at 4 mM. 11 point half log unit increment dilution series of test compound were prepared in DMSO then diluted 1 in 40 in a buffer comprised of phosphate buffered saline (PBS) and 0.05% pluronic F-127 surfactant. Freshly cultured cells at 80-90% confluence were harvested and re-suspended in 90% growth media/10% DMSO. The cells were frozen using a planar freezer and stored in frozen aliquots in cryovials in liquid nitrogen until the day of the experiment. A vial of cells was defrosted in a 37° C. water bath for 2 min, then transferred to 10 ml of Dulbecco's Modified Eagle's Medium (DMEM). The cells were then centrifuged for 5 min at 1000 g and the pellet re-suspended at 1,000,000 cells/ml in DMEM. 5,000 cells (5 ul) were added to 5 ul of the compound dilution series in a 384 well assay plate and pre-incubated for 30 min at 37° C. 5 ul of agonist (15 nM PGE2 in PBS to give 5 nM FAC) was added and plates further incubated for 90 min at 37° C. The relative cAMP concentration in each well was then measured using a ? -galactosidase enzyme fragment complementation method purchased in kit form as the Discoverx cAMP II kit from GE Healthcare, UK. […] Sigmoidal curves were fitted to plots of log10 inhibitor concentration vs. percent effect. IC50 estimates were determined as the concentration of test compound giving an effect half way between the bottom and top asymptotes of the sigmoidal dose response curve. Each experiment included an IC50 determination for the literature compound as a standard to track assay consistency and allow fair comparison between values obtained in different experiments. The EC50 of PGE2 is used in combination with the ligand concentration in the assay to determine Ki values for antagonist dose responses using the Cheng-Prusoff equation. Consequently an agonist dose response curve is carried out for each experiment using the same incubation as the antagonist plate.

T1 sequence (P43116 whole entry): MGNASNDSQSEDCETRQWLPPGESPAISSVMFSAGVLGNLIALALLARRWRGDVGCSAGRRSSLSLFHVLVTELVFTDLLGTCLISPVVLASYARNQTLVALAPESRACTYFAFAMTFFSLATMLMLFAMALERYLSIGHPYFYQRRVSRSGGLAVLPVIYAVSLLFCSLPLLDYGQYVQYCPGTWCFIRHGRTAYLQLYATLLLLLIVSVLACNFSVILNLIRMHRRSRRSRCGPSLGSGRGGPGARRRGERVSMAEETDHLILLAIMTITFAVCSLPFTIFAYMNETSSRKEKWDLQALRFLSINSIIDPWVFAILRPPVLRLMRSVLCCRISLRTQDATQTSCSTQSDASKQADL

SMILES | Ki [nM]
O=C(c1ccccc1)N1CC(COc2cccc(-c3ccccc3)c2)(C(=O)O)C1 [Example 36] | 705
CCOc1ccc(C(=O)N2CC(COc3ccc4nc(C)ccc4c3)(C(=O)O)C2)cc1 [Example 34] | 338
COc1ccc2cc(OCC3(C(=O)NS(C)(=O)=O)CN(C(=O)c4ccc(F)cc4)C3)ccc2c1 [Example 50, 1-(4-Fluorobenzoyl)-3-{[(6-methoxy-2-naphthyl)oxy]methyl}-N-(methylsulfonyl)azetidine-3-carboxamide] | 776
COc1ccc(OC(=O)N2CC(COc3ccc4cc(OC)ccc4c3)(C(=O)O)C2)cc1 [Example 62] | 12.4
COc1ccc2nc(OCC3(C(=O)O)CN(C(=O)c4ccccc4)C3)ccc2c1 [Example 48] | 79.7
O=C(c1ccc(F)cc1)N1CC(COc2ccc3nc(-c4ccccn4)sc3c2)(C(=O)O)C1 [Example 7] | 1.4
CCOc1ccccc1C(=O)N1CC(COc2ccc3cc(OC)ccc3c2)(C(=O)O)C1 [Example 18] | 19.7
Cc1ccc2cc(OCC3(C(=O)O)CN(C(=O)c4ccccc4)C3)ccc2n1 [Example 32] | 271
COc1ccc2cc(OCC3(C(=O)O)CN(C(=O)Oc4ccc(F)cc4)C3)ccc2c1 [Example 60, 1-[(4-Fluorophenoxy)carbonyl]-3-{[(6-methoxy-2-naphthyl)oxy]methyl}azetidine-3-carboxylic acid] | 268
CSc1ccc(NC(=O)N2CC(COc3ccc(C)c4c3CCC4)(C(=O)O)C2)cc1 [Example 72] | 748
COc1cccc(C(=O)N2CC(COc3ccc4nc(C)ccc4c3)(C(=O)O)C2)c1 [Example 31] | 233
O=C(c1ccccc1)N1CC(COc2ccc3ccccc3c2)(C(=O)O)C1 [Example 28] | 175
COc1ccc2cc(OCC3(C(=O)O)CN(C(=O)c4ccc(Cl)cc4)C3)ccc2c1 [Example 13] | 6
O=C(C1CCC(F)(F)CC1)N1CC(COc2ccc(-c3ccc(Cl)cc3)cc2)(C(=O)O)C1 [Example 54, 3-{[(4′-Chlorobiphenyl-4-yl)oxy]methyl}-1-[(4,4-difluorocyclohexyl)carbonyl]azetidine-3-carboxylic acid] | 10.9
COc1ccc2cc(OCC3(C(=O)O)CN(C(=O)Nc4cccc(F)c4)C3)ccc2c1 [Example 63, 1-{[(3-Fluorophenyl)amino]carbonyl}-3-{[(6-methoxy-2-naphthyl)oxy]methyl}azetidine-3-carboxylic acid] | 50.6
COc1ccc(-c2cnc(OCC3(C(=O)O)CN(C(=O)c4ccccc4)C3)nc2)cc1 [Example 46] | 37.2
CCCOc1ccc(OCC2(C(=O)O)CN(C(=O)Nc3cccc(Cl)c3Cl)C2)cc1 [Example 67, 1-{[(2,3-Dichlorophenyl)amino]carbonyl}-3-[(4-propoxyphenoxy)methyl]azetidine-3-carboxylic acid] | 110
CCCc1ccc(OCC2(C(=O)O)CN(C(=O)Nc3ccccc3CC)C2)cc1 [Example 69] | 560

SMILES | Ki [nM]
O=C(c1ccc(F)cc1)N1CC(COc2ccc(-c3ccccn3)nc2)(C(=O)O)C1 [Example 27] | 146
CCCOc1ccc(OCC2(C(=O)O)CN(C(=O)c3ccc(Cl)cc3)C2)cc1 [Example 38] | 31.4
O=C(c1ccccc1)N1CC(COc2ccc(-c3ccccc3)cc2)(C(=O)O)C1 [Example 21] | 27.7
COc1ccc2ccc(OCC3(C(=O)O)CN(C(=O)c4ccc(F)cc4)C3)cc2c1 [Example 29] | 196
Cc1ccc2cc(OCC3(C(=O)O)CN(C(=O)c4ccc(F)cc4)C3)ccc2n1 [Example 25] | 122
COc1ccc2cc(OCC3(C(=O)O)CN(C(=O)Nc4ccccc4F)C3)ccc2c1 [Example 66] | 102
Cc1ccc2cc(OCC3(C(=O)O)CN(C(=O)c4ccc(Cl)cc4)C3)ccc2n1 [Example 23] | 101
COc1ccc2cc(OCC3(C(=O)O)CN(C(=O)Nc4cccc(Cl)c4)C3)ccc2c1 [Example 64] | 7.5
COc1ccc2cc(OCC3(C#N)CN(C(=O)c4ccc(F)cc4)C3)ccc2c1 [Example 52, 1-(4-Fluorobenzoyl)-3-{[(6-methoxy-2-naphthyl)oxy]methyl}azetidine-3-carbonitrile] | 182
Cc1cc(C)c2cc(OCC3(C(=O)O)CN(C(=O)c4ccc(F)cc4)C3)ccc2n1 [Example 24] | 103
COc1ccc2cc(OCC3(C(=O)O)CN(C(=O)Nc4ccc(F)cc4)C3)ccc2c1 [Example 65] | 55.6
CCCOc1ccc(OCC2(C(=O)O)CN(C(=O)Nc3cc(C)cc(C)c3)C2)cc1 [Example 71] | 587
O=C(c1ccccc1)N1CC(COc2cnc(-c3ccc(Cl)cc3)cn2)(C(=O)O)C1 [Example 42] | 5
CCOC(=O)C1(COc2ccc3cc(OC)ccc3c2)CN(C(=O)c2ccc(F)cc2)C1 [Example 51, Ethyl 1-(4-fluorobenzoyl)-3-{[(6-methoxy-2-naphthyl)oxy]methyl}azetidine-3-carboxylate] | 333
Cc1nc2ccc(OCC3(C(=O)O)CN(C(=O)c4ccc(F)cc4)C3)cc2s1 [Example 30] | 206
Cc1ccc2cc(OCC3(C(=O)O)CN(C(=O)c4cccc(Cl)c4)C3)ccc2n1 [Example 26] | 125
O=C(c1ccccc1)N1CC(COc2cnc(-c3ccccc3)cn2)(C(=O)O)C1 [Example 45, 1-Benzoyl-3-{[(5-phenylpyrazin-2-yl)oxy]methyl}azetidine-3-carboxylic acid] | 56.7

Further lines, results first:

Ki [nM] | SMILES
6.6 | O=C(c1ccc(F)cc1)N1CC(COc2ccc(-c3ncc(Cl)cn3)cc2)(C(=O)O)C1 [Example 9]
752 | O=C(c1ccc(F)cc1)N1CC(COc2cccc(-c3ccccc3)c2)(C(=O)O)C1 [Example 37]
53.9 | O=C(c1ccc(F)cc1)N1CC(COc2ccc(-c3ccccn3)cc2)(C(=O)O)C1 [Example 22]
0.9 | N#Cc1ccc(-c2ccc(OCC3(C(=O)O)CN(C(=O)c4ccc(Cl)cc4)C3)cc2)cc1 [Example 1, 1-(4-Chlorobenzoyl)-3-{[(4′-cyanobiphenyl-4-yl)oxy]methyl}azetidine-3-carboxylic acid]
3.3 | O=C(c1ccc(F)cc1)N1CC(COc2ccc(-c3ccc(Cl)cn3)cc2)(C(=O)O)C1 [Example 12]
5.6 | O=C(c1ccc(F)cc1)N1CC(COc2ccc(-c3ccc(F)cc3F)cc2)(C(=O)O)C1 [Example 44]
7.5 | O=C(c1ccc(F)cc1)N1CC(COc2ccc(-c3ccc(F)cc3)cc2)(C(=O)O)C1 [Example 16]
2.3 | O=C(c1ccc(F)cc1)N1CC(COc2ccc(-c3cc4ccccc4nn3)cc2)(C(=O)O)C1 [Example 8]
5.2 | O=C(c1ccc(F)cc1)N1CC(COc2ccc(-c3cccc(Cl)c3)cc2)(C(=O)O)C1 [Example 43]
10.5 | O=C(c1ccc(F)cc1)N1CC(COc2cnc(-c3ccc(Cl)cc3)nc2)(C(=O)O)C1 [Example 11]
2.3 | N#Cc1ccc(-c2ccc(OCC3(C(=O)O)CN(C(=O)c4ccc(F)cc4)C3)cc2)cc1 [Example 6]
7 | Cc1ccc(-c2ccc(OCC3(C(=O)O)CN(C(=O)c4ccc(F)cc4)C3)cc2)cc1 [Example 15]
1.1 | O=C(c1ccc(Cl)cc1)N1CC(COc2ccc(-c3ccc(F)cc3)cc2)(C(=O)O)C1 [Example 2]
525 | O=C(c1ccc(Cl)cc1)N1CC(COc2cccc(-c3ccccc3)c2)(C(=O)O)C1 [Example 35]
3.1 | O=C(c1ccc(F)cc1)N1CC(COc2ccc(-c3ccc(Cl)cc3)cc2)(C(=O)O)C1 [Example 10]
615 | O=C(c1ccc(F)cc1)N1CC(COc2ccc(Br)cc2)(C(=O)O)C1 [Example 53, 3-[(4-Bromophenoxy)methyl]-1-(4-fluorobenzoyl)azetidine-3-carboxylic acid]
0.7 | O=C(c1ccc(F)cc1)N1CC(COc2ccc(-c3ccc4ccccc4n3)cc2)(C(=O)O)C1 [Example 3]
1.9 | O=C(c1ccc(Cl)cc1)N1CC(COc2ccc(-c3ccc(Cl)cn3)cc2)(C(=O)O)C1 [Example 5]
22.5 | O=C(c1ccc(F)cc1)N1CC(COc2ccc(-c3ccccc3Cl)cc2)(C(=O)O)C1 [Example 39, 3-{[(2′-Chlorobiphenyl-4-yl)oxy]methyl}-1-(4-fluorobenzoyl)azetidine-3-carboxylic acid]
1.6 | O=C(c1ccc(Cl)cc1)N1CC(COc2ccc(-c3ccc(Cl)cc3)cc2)(C(=O)O)C1 [Example 4]

— US20080280877A1, “Azetidines” (Pfizer Inc, priority 2007, published 2008)
